Test results: ChEMBL document CHEMBL1149942, “Characterization of the taxol structure-activity profile for the locus of the A-ring side chain” (1994)
pEC50: −log10 of the molar value.

How the values were obtained:
[1] = tested on: J774.2; assay: Compound was tested for cytotoxicity against J774.2 cells, concentration required to inhibit cell division by 50% after 72 hr incubation; assay type: functional; conditions: Mus musculus, J774.2, 72 h; read-out: ED50 (the source's name)
[2] = Activity in calf brain microtubule protein assembly assay.; assay type: functional, Bos taurus
[3] = tested on: J774; assay: In vitro cytotoxicity against J774.2 cells after 72 hr incubation.; assay type: functional; conditions: Mus musculus, J774, 72 h; read-out: ED50 (the source's name)

| SMILES | pEC50 [1] | Assembly [2] | pEC50 [3] |
| --- | --- | --- | --- |
| CC(=O)O[C@H]1C(=O)[C@@]2(C)C([C@H](OC(=O)c3ccccc3)[C@]3(O)C[C@H](OC(=O)[C@H](O)CNC(=O)c4ccc5ccccc5c4)C(C)=C1C3(C)C)[C@]1(OC(C)=O)CO[C@@H]1C[C@@H]2O (some centres not stated) | 4.59 | 28% |  |
| CC(=O)O[C@H]1C(=O)[C@@]2(C)C([C@H](OC(=O)c3ccccc3)[C@]3(O)C[C@H](OC(=O)[C@H](O)CNC(=O)OCc4ccccc4)C(C)=C1C3(C)C)[C@]1(OC(C)=O)CO[C@@H]1C[C@@H]2O (some centres not stated) |  | 20% | 4.80 |
| CC(=O)O[C@H]1C(=O)[C@@]2(C)C([C@H](OC(=O)c3ccccc3)[C@]3(O)C[C@H](OC(=O)[C@H](O)CNC(=O)C4CCCCC4)C(C)=C1C3(C)C)[C@]1(OC(C)=O)CO[C@@H]1C[C@@H]2O (some centres not stated) |  | 33% | 4.80 |
| CC(=O)O[C@H]1C(=O)[C@@]2(C)C([C@H](OC(=O)c3ccccc3)[C@]3(O)C[C@H](OC(=O)[C@H](O)CNC(=O)C45CC6CC(CC(C6)C4)C5)C(C)=C1C3(C)C)[C@]1(OC(C)=O)CO[C@@H]1C[C@@H]2O (some centres not stated) |  | 24% | 4.96 |
| Nc1nc2c(ncn2[C@@H]2O[C@H](COP(=O)(O)OP(=O)(O)OP(=O)(O)O)[C@@H](O)[C@H]2O)c(=O)[nH]1 [GUANOSINE TRIPHOSPHATE] |  | 70% |  |
| CCCCCC(=O)NC[C@@H](O)C(=O)O[C@H]1C[C@@]2(O)[C@@H](OC(=O)c3ccccc3)C3[C@](C)(C(=O)[C@H](OC(C)=O)C(=C1C)C2(C)C)[C@@H](O)C[C@H]1OC[C@@]31OC(C)=O (some centres not stated) | 4.59 | 34% |  |
| CC(=O)O[C@H]1C(=O)[C@@]2(C)C([C@H](OC(=O)c3ccccc3)[C@]3(O)C[C@H](OC(=O)[C@H](O)CNC(=O)c4ccc(C(F)(F)F)cc4)C(C)=C1C3(C)C)[C@]1(OC(C)=O)CO[C@@H]1C[C@@H]2O (some centres not stated) |  | 20% | 4.64 |
| CC(=O)O[C@H]1C(=O)[C@@]2(C)C([C@H](OC(=O)c3ccccc3)[C@]3(O)C[C@H](OC(=O)[C@H](O)[C@@H](NC(=O)OCc4ccccc4)c4ccccc4)C(C)=C1C3(C)C)[C@]1(OC(C)=O)CO[C@@H]1C[C@@H]2O (some centres not stated) |  | 94% | 6.72 |
| CC(=O)O[C@H]1C(=O)[C@@]2(C)[C@H]([C@H](OC(=O)c3ccccc3)[C@]3(O)C[C@H](OC(=O)[C@H](O)[C@@H](NC(=O)c4ccccc4)c4ccccc4)C(C)=C1C3(C)C)[C@]1(OC(C)=O)CO[C@@H]1C[C@@H]2O [PACLITAXEL] |  | 100% | 7.05 |
| CC(=O)O[C@H]1C(=O)[C@@]2(C)C([C@H](OC(=O)c3ccccc3)[C@]3(O)C[C@H](OC(=O)[C@H](O)CNC(=O)c4ccc(N=[N+]=[N-])cc4)C(C)=C1C3(C)C)[C@]1(OC(C)=O)CO[C@@H]1C[C@@H]2O (some centres not stated) |  | 25% | 4.70 |
| CC(=O)O[C@H]1C(=O)[C@@]2(C)C([C@H](OC(=O)c3ccccc3)[C@]3(O)C[C@H](OC(=O)[C@H](O)[C@@H](NC(=O)c4ccccc4O)c4ccccc4)C(C)=C1C3(C)C)[C@]1(OC(C)=O)CO[C@@H]1C[C@@H]2O (some centres not stated) |  | 93% | 6.25 |
| CC(=O)O[C@H]1C(=O)[C@@]2(C)C([C@H](OC(=O)c3ccccc3)[C@]3(O)C[C@H](OC(=O)[C@H](O)CNC(=O)c4ccccc4)C(C)=C1C3(C)C)[C@]1(OC(C)=O)CO[C@@H]1C[C@@H]2O (some centres not stated) |  | 60% | 4.70 |
| CC(=O)O[C@H]1C(=O)[C@@]2(C)C([C@H](OC(=O)c3ccccc3)[C@]3(O)C[C@H](OC(=O)[C@H](O)[C@@H](NC(=O)c4ccc(C(F)(F)F)cc4)c4ccccc4)C(C)=C1C3(C)C)[C@]1(OC(C)=O)CO[C@@H]1C[C@@H]2O (some centres not stated) |  | 80% | 6.05 |
| CC(=O)O[C@H]1C(=O)[C@@]2(C)C([C@H](OC(=O)c3ccccc3)[C@]3(O)C[C@H](OC(=O)[C@H](O)CNC(=O)OC(C)(C)C)C(C)=C1C3(C)C)[C@]1(OC(C)=O)CO[C@@H]1C[C@@H]2O (some centres not stated) |  | 51% | 5.70 |
| CC(=O)O[C@H]1C(=O)[C@@]2(C)C([C@H](OC(=O)c3ccccc3)[C@]3(O)C[C@H](OC(=O)[C@H](O)[C@@H](NC(=O)c4ccc(N=[N+]=[N-])cc4)c4ccccc4)C(C)=C1C3(C)C)[C@]1(OC(C)=O)CO[C@@H]1C[C@@H]2O (some centres not stated) |  | 90% | 6.55 |
| CC(=O)O[C@H]1C(=O)[C@@]2(C)C([C@H](OC(=O)c3ccccc3)[C@]3(O)C[C@H](OC(=O)[C@H](O)[C@@H](NC(=O)c4ccc(C(C)=O)cc4)c4ccccc4)C(C)=C1C3(C)C)[C@]1(OC(C)=O)CO[C@@H]1C[C@@H]2O (some centres not stated) |  | 84% | 5.80 |
| CC(=O)O[C@H]1C(=O)[C@@]2(C)C([C@H](OC(=O)c3ccccc3)[C@]3(O)C[C@H](OC(=O)[C@H](O)CNC(=O)C(C)(C)C)C(C)=C1C3(C)C)[C@]1(OC(C)=O)CO[C@@H]1C[C@@H]2O (some centres not stated) |  | 28% | 4.40 |
| CC(=O)O[C@@]12CO[C@@H]1C[C@H](O)[C@@]1(C)C(=O)[C@H](O)C3=C(C)[C@@H](OC(=O)[C@H](O)[C@@H](NC(=O)OC(C)(C)C)c4ccccc4)C[C@@](O)([C@@H](OC(=O)c4ccccc4)[C@H]21)C3(C)C.O.O.O [DOCETAXEL] |  | 105% | 7.30 |
| CC(=O)O[C@H]1C(=O)[C@@]2(C)C([C@H](OC(=O)c3ccccc3)[C@]3(O)C[C@H](OC(=O)[C@H](O)[C@@H](NC(=O)c4ccc(C(=O)c5ccccc5)cc4)c4ccccc4)C(C)=C1C3(C)C)[C@]1(OC(C)=O)CO[C@@H]1C[C@@H]2O (some centres not stated) |  | 39% | 5.82 |
